The values that follow come from patent US9999616B2 (ZENITH EPIGENETICS LTD., priority 2013, dated 2018).

Test [1] has as its system c-myc in Human AML MV4-11 cells. Kind of test: Inhibition of cMYC expression (mRNA, real-time PCR) in MV4-11 cells. The conditions noted are these: 3 h treatment, cMYC mRNA by real-time PCR. Type of test: cell-based. The method, then:
MV4-11 cells (CRL-9591) were plated at a density of 2.5×10^4 cells per well in 96 well U-bottom plates and treated with increasing concentrations of test compound or DMSO (0.1%) in IMDM media containing 10% FBS and penicillin/streptomycin, and incubated for 3 h at 37′C. Triplicate wells were used for each concentration. Cells were pelleted by centrifugation and harvested using the mRNA Catcher PLUS kit according to manufacturer's instructions. The eluted mRNA isolated was then used in a one-step quantitative real-time PCR reaction, using components of the RNA UltraSense™ One-Step Kit (Life Technologies) together with Applied Biosystems TaqMan® primer-probes for cMYC and Cyclophilin. Real-time PCR plates were run on a ViiA™7 real time PCR machine (Applied Biosystems), data was analyzed, normalizing the Ct values for cMYC to an internal control, prior to determining the fold expression of each sample, relative to the control.
(In general: Real-time PCR tracks product formation cycle by cycle.)

Test [2] addresses Brd4 bromodomain 1 (BRD4(1)) (Homo sapiens, UniProt O60885). Briefly: Inhibition of tetra-acetylated histone H4 binding to Brd4 bromodomain 1, measured by FRET (HTRF). The conditions noted are these: 2 h at room temperature. Further details: made in house; host or cells: E. coli BL21(DE3). On the procedure: Proteins were cloned and overexpressed with a N-terminal 6×His tag, then purified by nickel affinity followed by size exclusion chromatography. Briefly, E. coli BL21(DE3) cells were transformed with a recombinant expression vector encoding N-terminally Nickel affinity tagged bromodomains from Brd2, Brd3, Brd4. Cell cultures were incubated at 37° C. with shaking to the appropriate density and induced overnight with IPTG. The supernatant of lysed cells was loaded onto Ni-IDA column for purification. Eluted protein was pooled, concentrated and further purified by size exclusion chromatography. Fractions representing monomeric protein were pooled, concentrated, aliquoted, and frozen at −80° C. for use in subsequent experiments.
Binding of tetra-acetylated histone H4 and BET bromodomains was confirmed by a Homogenous Time Resolved Fluorescence Resonance Energy Transfer (HTRF®) method. N-terminally His-tagged bromodomains (200 nM) and biotinylated tetra-acetylated histone H4 peptide (25-50 nM, Millipore) were incubated in the presence of Europium Cryptate-labeled streptavidin (Cisbio Cat. #610SAKLB) and XL665-labeled monoclonal anti-His antibody (Cisbio Cat. #61HISXLB) in a white 96 well microtiter plate (Greiner). For inhibition assays, serially diluted test compound was added to these reactions in a 0.2% final concentration of DMSO. Duplicate wells were used for each concentration tested. Final buffer concentrations were 30 mM HEPES pH 7.4, 30 mM NaCl, 0.3 mM CHAPS, 20 mM phosphate pH 7.0, 320 mM KF, 0.08% BSA. After a 2 h incubation at room temperature, fluorescence was measured at 665 and 620 nm with a SynergyH4 plate reader (Biotek). The binding inhibitory activity was shown by a decrease in 665 nm relative to 620 nm fluorescence. IC50 values were determined from a dose response curve.

Test [3] deals with hIL-6 mRNA. Kind of test: Inhibition of hIL-6 mRNA transcription in LPS-stimulated U937 macrophages. The test is classed as cell-based, Human. The conditions noted are these: 1 h pretreatment, LPS 3 h; for IC50: Homo sapiens, U-937, PMA-differentiated U937 cells, read-out: IL-6 activity; for IL-6 activity: PMA-differentiated U937 cells. The method, then:
Human leukemic monocyte lymphoma U937 cells (CRL-1593.2) were plated at a density of 3.2×10^4 cells per well in a 96-well plate in 100 μL RPMI-1640 containing 10% FBS and penicillin/streptomycin, and differentiated into macrophages for 3 days in 60 ng/mL PMA ([…]) at 37° C. in 5% CO2 prior to the addition of compound. The cells were pretreated for 1 h with increasing concentrations of test compound in 0.1% DMSO prior to stimulation with 1 ug/mL lipopolysaccharide from Escherichia coli. Triplicate wells were used for each concentration. The cells were incubated at 37° C., 5% CO2 for 3 h before the cells were harvested. At time of harvest, media was removed and cells were rinsed in 200 μL PBS. Cells were harvested using the mRNA Catcher PLUS kit according to manufacturer's instructions. The eluted mRNA was then used in a one-step quantitative real-time PCR reaction using components of the RNA UltraSense™ One-Step Kit (Life Technologies) together with Applied Biosystems TaqMan® primer-probes for hIL-6 and Cyclophilin. Real-time PCR plates were run on a ViiA™7 real time PCR machine (Applied Biosystems), data was analyzed, normalizing the Ct values for hlL-6 to an internal control, prior to determining the fold expression of each sample, relative to the control.

Test [4] concerns Human AML MV-4-11 cells. Kind of test: Inhibition of cell proliferation in MV4-11 cells (CellTiter Aqueous One). The test is classed as cell-based. The conditions noted are these: for IC50: MV4-11, 72 h; for Cell Proliferation activity: 72 h. On the procedure:
MV4-11 cells (CRL-9591) were plated at a density of 5×10^4 cells per well in 96 well flat bottom plates and treated with increasing concentrations of test compound or DMSO (0.1%) in IMDM media containing 10% FBS and penicillin/streptomycin. Triplicate wells were used for each concentration and a well containing only media was used as a control. Plates were incubated at 37° C., 5% CO2 for 72 h before adding 20 µL of the CellTiter Aqueous One Solution (Promega) to each well and incubated at 37° C., 5% CO2 for an additional 3-4 h. The absorbance was read at 490 nm in a spectrophotometer and the percentage of cell titer relative to DMSO-treated cells was calculated after correcting for background by subtracting the blank well's signal. IC50 values were calculated using the GraphPad Prism software.

For `Cc1noc(C)c1-c1cc(-c2cccc(C#N)c2)c2nc[nH]c2c1` [Example Compound 2, 3-(6-(3,5-dimethylisoxazol-4-yl)-1H-benzo[d]imidazol-4-yl) benzonitrile], the IC50 in test [1] is 300 to 3000 nM; in test [2], at most 300 nM; in test [3], 300 to 3000 nM; in test [4], 300 to 3000 nM.

In the case of `Cc1noc(C)c1-c1cc(-c2c(C)noc2C)c2nccn2c1` [Example Compound 8, 4,4′-(imidazo [1,2-a]pyridine-6,8-diyl) bis(3,5-dimethylisoxazole)], in test [2], the IC50 is 300 to 3000 nM. In addition, in test [3], the IL-6 activity result was “Not active”. For the same compound, the “Cell Proliferation activity” value in test [4] is recorded as “Not active”.

For the compound `Cc1noc(C)c1-c1cc(-c2cncnc2)c2nc[nH]c2c1` [Example Compound 22, 3,5-dimethyl-4-(4-(pyrimidin-5-yl)-1H-benzo[d]imidazol-6-yi)isoxazole], the IC50 in test [2] and in test [3] was 300 to 3000 nM in each case. The “Cell Proliferation activity” value in test [4] was “Not active”.

As to `Cc1noc(C)c1-c1cc(Nc2ncccn2)c2nc[nH]c2c1` [Example Compound 43, 6-(3,5-dimethyl-isoxazol-4-yl)-N-(pyrimidin-2-yl)-1H-benzo[d] imidazol-4-amine], the IC50 in test [2] is at most 300 nM; in test [3], 300 to 3000 nM; in test [4], 3000 to 30000 nM.

`COc1nccc(C)c1-c1cc(-c2c(C)noc2C)cc2[nH]c(C)nc12` [Example Compound 114, 4-(4-(2-methoxy-4-methyl-pyridin-3-yl)-2-methyl-1H-benzo[d]imidazol-6-yl)-3,5-dimethyl isoxazole]: the IC50 in test [2] was 300 to 3000 nM; in test [3], at most 300 nM.

For `Cc1nc2c(N3C(=O)CCC3C)cc(-c3c(C)noc3C)cc2[nH]1` (centres unmarked) [Example Compound 121, 1-(6-(3,5-dimethylisoxazol-4-yl)-2-methyl-1H-benzo[d]imidazol-4-yl)-5-methylpyrrolidin-2-one], the IC50 in test [2] and in test [3] was 300 to 3000 nM each time. The “Cell Proliferation activity” value in test [4] is “Not active”.

Take `Cc1nc2c(-c3cccc(S(C)(=O)=O)c3)cc(-c3c(C)noc3C)cc2[nH]1` [Example Compound 154, 3,5-dimethyl-4-(2-methyl-4-(3-(methyl-sulfonyl)phenyl)-1H-benzo[d]imidazol-6-yl)isoxazole]: the figures for the IC50 in test [2], in test [3] and in test [4] were at most 300 nM, at most 300 nM and 300 to 3000 nM, respectively.

Take `Cc1nc2c(/C=C/c3ccccc3)cc(-c3c(C)noc3C)cc2[nH]1` [Example Compound 158, (E)-3,5-dimethyl-4-(2-methyl-4-styryl-1H-benzo[d]imidazol-6-yl)isoxazole]: the values for the IC50 in test [2], in test [3] and in test [4] were at most 300 nM, 300 to 3000 nM and 300 to 3000 nM, respectively.

Consider `Cc1nc2c(NC(=O)c3ccccc3)cc(-c3c(C)noc3C)cc2[nH]1` [Example Compound 165, N-(6-(3,5-dimethyl-isoxazol-4-yl)-2-methyl-1H-benzo[d]imidazol-4-yl)benzamide], for which the figures for the IC50 in test [2], in test [3] and in test [4] were 300 to 3000 nM, 300 to 3000 nM and 3000 to 30000 nM, respectively.

As for `Cc1nc2c(Oc3cc(C(=O)O)ccc3C)cc(-c3c(C)noc3C)cc2[nH]1` [Example Compound 175, 3-((6-(3,5-dimethylisoxazol-4-yl)-2-methyl-1H-benzo[d]imidazol-4-yl)oxy)-4-methylbenzoic acid], in test [2], the IC50 was at most 300 nM. Besides, the IL-6 activity entry in test [3] is on record as “Not active”. Further, in test [4], the “Cell Proliferation activity” value was “Not active”.

`Cc1ccc(C#N)cc1-c1cc(-c2c(C)noc2C)cc2[nH]c(NC3CCOCC3)nc12` [Example Compound 198, 3-(6-(3,5-dimethyl-isoxazol-4-yl)-2-((tetrahydro-2H-pyran-4-yl)amino)-1H-benzo[d]imidazol-4-yl)-4-methyl benzonitrile]: the IC50 in test [1], in test [2] and in test [4] was at most 300 nM in each case.

As for `Cc1ccc(C(N)=O)cc1-c1cc(-c2c(C)noc2C)cc2[nH]c(NC3CCOCC3)nc12` [Example Compound 200, 3-(6-(3,5-dimethyl-isoxazol-4-yl)-2-((tetrahydro-2H-pyran-4-yl)amino)-1H-benzo[d]imidazol-4-yl)-4-methyl benzamide], the IC50 in test [1], in test [2] and in test [4] was at most 300 nM each time.

Take `Cc1noc(C)c1-c1cc(-c2cccc(C(N)=O)c2C)c2nc(N3CCOCC3)[nH]c2c1` [Example Compound 208, 3-(6-(3,5-dimethyl-isoxazol-4-yl)-2-morpholino-1H-benzo[d]imidazol-4-yl)-2-methyl benzamide]: the IC50 in test [2] and in test [3] was at most 300 nM throughout.

For the compound `Cc1ccc(C#N)cc1-c1cc(-c2c(C)noc2C)cc2[nH]c(NCc3cccnc3)nc12` [Example Compound 211, 3-(6-(3,5-dimethyl-isoxazol-4-yl)-2-((pyridin-3-ylmethyl)amino)-1H-benzo[d]imidazol-4-yl)-4-methyl-benzonitrile], the values for the IC50 in test [2] and in test [3] were at most 300 nM and 300 to 3000 nM, respectively.

Regarding `Cc1noc(C)c1-c1cc(-c2c(C)nn(C)c2C)c2nc(NCc3ccccc3)[nH]c2c1` [Example Compound 212, N-benzyl-6-(3,5-dimethyl-isoxazol-4-yl)-4-(1,3,5-trimethyl-1H-pyrazol-4-yl)-1H-benzo[d] imidazol-2-amine], the IC50 in test [2] and in test [3] was at most 300 nM in each case.

Turning to `Cc1noc(C)c1-c1cc(-c2c(C)nn(C)c2C)c2nc(N3CCCC3)[nH]c2c1` [Example Compound 213, 3,5-dimethyl-4-(2-(pyrrolidin-1-yl)-4-(1,3,5-trimethyl-1H-pyrazol-4-yl)-1H-benzo[d]imidazol-6-yl)isoxazole], the IC50 in test [2] and in test [3] was at most 300 nM throughout.

Turning to `Cc1ccc(C#N)cc1-c1cc(-c2c(C)noc2C)cc2[nH]c(N3CCCC3)nc12` [Example Compound 215, 3-(6-(3,5-dimethylisoxazol-4-yl)-2-(pyrrolidin-1-yl)-1H-benzo[d]imidazol-4-yl)-4-methylbenzonitrile], the IC50 in test [1] was at most 300 nM; in test [2], at most 300 nM; in test [3] it was 300 to 3000 nM.

Take `Cc1noc(C)c1-c1cc(-c2cccc(C#N)c2C)c2nc(NC3CCN(C)CC3)[nH]c2c1` [Example Compound 216, 3-(6-(3,5-dimethyl-isoxazol-4-yl)-2-((1-methyl-piperidin-4-yl)amino)-1H-benzo[d]imidazol-4-yl)-2-methyl benzonitrile]: the IC50 is 300 to 3000 nM in test [1], at most 300 nM in test [2] and at most 300 nM in test [3].
